Measurements: patent US20200165194A1, “ADDITIVE COMPOSITION FOR CULTURE MEDIUM, ADDITIVE COMPOUND FOR CULTURE MEDIUM, AND METHOD FOR CULTURE OF CELLS OR TISSUE USING SAME” (NISSAN CHEMICAL CORPORATION, priority 2017, published 2020)
Like-named read-outs stand apart in the source and are kept apart here.

Key:
[1] = system: hiPS cell line 253G1; experiment: Human pluripotent stem cell (hiPS cell), EZSPHERE plate, ATP assay (Experimental Example 13); assay type: cell-based
Experimental: hiPS cell line 253G1 (purchased from RIKEN) was cultured on a dish coated with vitronectin VTN-N (manufactured by Thermo Fisher Scientific) using mTeSR1 (registered trade mark) medium (manufactured by STEMCELL Technologies). The above-mentioned cells in the proliferation phase were washed with PBS (manufactured by Fujifilm Corporation Wako Pure Chemical Industries, Ltd.), TrypLE Select (registered trade mark) (manufactured by Thermo Fisher Scientific) was added and the mixture was incubated at 37° C. for 3 min to remove the detaching solution. The medium was added and the cells were detached by pipetting. Thereafter, the supernatant was removed by centrifugation.
The aforementioned cells were suspended in a medium containing 10 μM Y-27632 (manufactured by Fujifilm Corporation Wako Pure Chemical Industries, Ltd.) and seeded in a 96-well EZSPHERE plate (manufactured by AGC TECHNO GLASS CO., LTD., #4860-900) at a cell concentration of 10000 cells/200 μL/well. […] The amount of each compound solution to be added was 2 μL/well. As a control, a DMSO solution dissolved in a medium was added (DMSO final concentration 0.05%). The medium was exchanged by half the volume every day, and each compound solution was also added to make the compound concentration constant.

[2] = system: Chinese hamster ovary-derived cell line CHO-K1; experiment: Animal cell lines, 3D culture, ATP assay (Experimental Example 15); assay type: cell-based; details: 4 days
From the text: (§1) Various animal cell lines were precultured (single layer culture) as follows in respective media. Chinese hamster ovary-derived cell line CHO-K1 (manufactured by DS PHARMA BIO MEDICAL, 10% fetal bovine serum (FBS, manufactured by Corning)-containing Ham's F-12 medium (manufactured by Fujifilm Wako Pure Chemical Corporation)), Cercopithecus aethiops kidney epithelium-derived cell line Vero (purchased from JCRB cell bank, 5% FBS-containing Medium 199 medium (manufactured by Life Technologies)). The above-mentioned cells in the logarithmic growth phase were washed with PBS, a 0.25 w/v % trypsin-1 mmol/L EDTA (ethylenediaminetetraacetic acid) solution (manufactured by Fujifilm Wako Pure Chemical Corporation) was added, and adherent cells were detached by incubating at 37° C. for 3 min. Each medium was added and the mixture was centrifuged and resuspended in the same medium.
(§2) The aforementioned various animal cells were suspended in respective deacylated gellan gum-containing or not containing media (deacylated gellan gum concentration was 0.02 w/v % in Ham's F-12 medium, 0.015 w/v % in Medium 199 medium), and seeded in a 96 well low attachment U-bottom plate (manufactured by Corning, #4520, deacylated gellan gum-free medium), or a low attachment flat bottom plate (manufactured by Corning, #3474, deacylated gellan gum-containing medium) at a cell concentration of 700-2000 cells/90 μL/well (all 3D culture). […] The amount of each compound solution to be added was […]. As a control, a DMSO solution dissolved in a medium was added (DMSO final concentration 0.1%). […] When compared with the compound non-addition (control), one showing a value of not more than 119% as -, one showing a value of not less than 120% as ◯, and one showing a value of not less than 150% as ⊚ are shown in the twenty-third table and the twenty-fourth table.

[3] = system: Cercopithecus aethiops kidney epithelium-derived cell line Vero; experiment: as above; assay type: cell-based; details: for number of viable cells (RLU), relative value to control (100%): 4 days
From the text: as §1, §2

[4] = system: human ovarian cancer cell line SKOV3; experiment: Action on SKOV3 cell-2: 3D (deacylated gellan gum) and 2D culture, EGF medium, ATP assay (Experimental Example 3); details: for viability at 1 µM / viability at 5 µM / viability at 10 µM / viability at 20 µM: Homo sapiens, SK-OV-3, 96 h, 4 days, compound non-addition = 100%
[5] = system: Mouse embryonic fibroblast C3H10T1/2; experiment: Fibroblast strain C3H10T1/2, 3D culture, ATP assay (Experimental Example 11); assay type: cell-based
Experimental: Mouse embryonic fibroblast C3H10T1/2 (manufactured by DS PHARMA BIO MEDICAL) was cultured in a BME medium (manufactured by Thermo Fisher Scientific) containing 10 (v/v) % FBS (manufactured by Corning) and the L-glutamine-penicillin-streptomycin stabilizing solution (manufactured by Sigma-Aldrich). The above-mentioned cells in the logarithmic growth phase were washed with PBS, a 0.25 w/v % trypsin-1 mmol/L EDTA (ethylenediaminetetraacetic acid) solution (manufactured by Wako Pure Chemical Industries, Ltd.) was added, and the cells were detached by incubating at 37° C. for 3 min. Each medium was added, the mixture was centrifuged, and the supernatant was removed.
The aforementioned various cells were suspended in respective deacylated gellan gum-containing or not containing media (deacylated gellan gum concentration was 0.015 w/v %), and seeded in a 96 well low attachment U-bottom plate (manufactured by Corning, #4520, deacylated gellan gum-free medium) at a cell concentration of 700-2000 cells/90 μL/well (3D culture). […] The amount of each compound solution to be added was 10 μL/well. As a control, a DMSO solution dissolved in a medium was added (DMSO final concentration 0.1%). […] When compared with the compound no-addition (control), one showing a value of not more than 119% as -, one showing a value of not less than 120% as ◯, and one showing a value of not less than 150% as ⊚ are shown in the eighteenth table. Unperformed test is left blank.

[6] = read-out: relative value of RLU (number of viable cells), 2D single layer culture
[7] = read-out: relative value of RLU (number of viable cells), 3D culture (deacylated gellan gum)

CC/C(=N\NC(=O)NCc1cccc(O)c1)c1ccc(O)c(C)c1O [k-1:J-1]
relative value (%) ([1]; hiPS 253G1, EZSPHERE plate, 5 μM, 3 days, RLU of DMSO addition = 100%): 227% | proliferation activity (in words) ([1]; human pluripotent stem cells under three-dimensional conditions): promoted proliferation activity in human pluripotent stem cells | number of viable cells (RLU), relative value to control (100%) ([2]; CHO-K1, low attachment flat bottom plate (deacylated gellan gum-containing medium), 10 μM): ⊙ | viability at 5 µM ([2]; Cricetulus griseus, CHO-K1, 96 h, read-out: number of viable cells (RLU), relative value to control (100%), CHO-K1, low attachment U-bottom plate): < 119% | viability at 10 µM ([2]; Cricetulus griseus, CHO-K1, 96 h, read-out: number of viable cells (RLU), relative value to control (100%), CHO-K1, low attachment U-bottom plate, 10 μM): < 119% | viability at 5 µM ([2]; Cricetulus griseus, CHO-K1, 96 h, read-out: number of viable cells (RLU), relative value to control (100%), CHO-K1, low attachment flat bottom plate (deacylated gellan gum-containing medium)): 120 to 150% | viability at 5 µM ([3]; Chlorocebus sabaeus, 96 h, read-out: number of viable cells (RLU), relative value to control (100%)): 120 to 150% | number of viable cells (RLU), relative value to control (100%) ([3]; low attachment U-bottom plate, 5 μM): ⊙ | number of viable cells (RLU), relative value to control (100%) ([3]; low attachment U-bottom plate, 10 μM): ⊙ | number of viable cells (RLU), relative value to control (100%) ([3]; low attachment flat bottom plate (deacylated gellan gum-containing medium), 10 μM): ⊙ | viability at 1 µM [4, 6]: 93% | viability at 5 µM [4, 6]: 96% | viability at 10 µM [4, 6]: 97% | viability at 20 µM [4, 6]: 102% | viability at 1 µM [4, 7]: 116% | viability at 5 µM [4, 7]: 170% | viability at 10 µM [4, 7]: 186% | viability at 20 µM [4, 7]: 173% | cell proliferation promoting effect (in words) ([4]; single layer culture (2D) of SKOV3 cells): a favorable cell proliferation promoting effect was not observed | cell proliferation promoting effect (in words) ([4]; three-dimensional culture (3D) of SKOV3 cells): exhibited cell proliferation promoting effect at a wide concentration range | number of viable cells (RLU), relative value to control (100%) ([5]; C3H10T1/2, low attachment U-bottom plate, 1 μM, 4 days): ⊙ | proliferation activity (in words) ([5]; fibroblast under three-dimensional conditions): promoted proliferation activity in fibroblast
